Consider 52 compounds from PubChem BioAssay AID179 (DTP/NCI, 2004).

“And” between values parts separate entries of the source, which are not always exact repeats. Equal entries are not always repeated. The source made the active and inactive calls.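 How the source made its calls: active means compounds giving half or more protection of infected cells from virus-caused growth loss, again on retest; inactive means the rest.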

The assay concerns CEM cells HIV-1 protection, formazan growth assay. As to the kind of experiment: NCI AIDS Antiviral Assay. Particulars: for IC50: measured here: growth of uninfected CEM cells. Summed up: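 Protection of CEM cells against HIV-1 was scored from cell growth (soluble formazan) across five concentrations, with parallel uninfected cells. Lack of protection may reflect toxicity.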

Turning to `CNC(=S)NC1CCCCC1NC(=S)NC` (configuration not stated), the EC50 (in general, the midpoint of the concentration-response curve) was > 692 µM and the IC50 – broadly, the concentration needed to halve the response being measured – was > 692 µM.

`O=c1[nH]c2ccccc2c(O)c1-c1ccccc1`: the EC50 is > 200 µM and the half-inhibitory concentration (IC50) is > 200 µM.

Consider `CC1=CC(=O)CC2(C)CC[C@@H]3C[C@]12OC3(C)C` (some centres not stated), for which the outcome was inactive.

Turning to `CN1CN(c2ccccc2)C2(CCNCC2)C1=O`, the EC50 is > 200 µM and the concentration for half-maximal inhibition (IC50) is > 200 µM.

As to `CCN(CC)C(=S)N/N=C(\C)c1cccc(C)n1`, the EC50 is > 2 µM and the IC50 was determined as 0.0132 µM.

With `CC(C)C(=O)CC(Sc1ccc(N)cc1)c1ccccc1` (configuration not stated), the EC50 was > 200 µM and the IC50 was 87.1 µM.

As to `CCC(=O)OC1(c2ccccc2)CCN(CCC(=O)c2ccccc2)CC1C` (configuration not stated), the EC50 is > 200 µM and the IC50 was determined as 9.55 µM.

For the compound `Nc1ccc(N=Nc2ccc(/C=C/c3ccc(N=Nc4ccc(N)c5ccccc45)cc3S(=O)(=O)O)c(S(=O)(=O)O)c2)c2ccccc12`, the EC50 is > 50.1 µM and the IC50 turned out to be 37.2 µM.

As to `Nc1ncc(/C=N/O)c(NCC2(CO)CC(CCc3ccccc3)C2)n1` (configuration not stated), the EC50 was > 2 µM and the IC50 came out at 0.603 µM.

As to `Cc1ccc(S(=O)(=O)NC2C(=O)c3ccccc3C(=O)C2n2cnc3ccccc32)cc1` (configuration not stated), the EC50 is > 200 µM and the IC50 is 42.7 µM.

As to `COc1ccccc1C(N)c1ccccc1` (configuration not stated), the EC50 is > 501 µM and the half-inhibitory concentration (IC50) turned out to be 89.1 µM.

Regarding `O=C1c2c(ccc3c2CCC3)CC12Cc1cc3c(cc1C2)CCC3`, the EC50 is > 200 µM and the concentration for half-maximal inhibition (IC50) is > 200 µM.

Consider `CCCCCCCCCCCCCCCC(=O)NCC(COP(=O)([O-])OCC[N+](C)(C)C)OCC` (configuration not stated), for which the outcome was inactive.

`COc1ccc2c(c1)C(C)(C)Oc1cc3oc(C(=O)O)cc(=O)c3cc1-2`: the EC50 is > 355 µM and the IC50 is > 355 µM.

As for `CC/C=C\C/C=C\C/C=C\CCCCCCCC(=O)OCC`, the EC50 is > 200 µM and the half-maximal inhibitory concentration (IC50) came to 105 µM.

Take `CC(=O)Oc1ccn2nc(C)c(Cc3c(C)nn4ccc(OC(C)=O)cc34)c2c1`: the EC50 was > 200 µM and the 50% inhibitory concentration (IC50) came out at 28.2 µM.

For `O=[N+]([O-])CCc1cccc([N+](=O)[O-])c1`, the EC50 was > 1260 µM and the IC50 is > 1260 µM.

For the compound `N#C[C@H]1Nc2ccccc2[C@@H](O)C1O` (some centres not stated), the EC50 is > 1320 µM and the half-inhibitory concentration (IC50) is > 1320 µM.

For the compound `O=c1c2cc([N+](=O)[O-])ccc2n(Cc2ccccc2)n1Cc1ccccc1`, the EC50 was > 200 µM and the half-maximal inhibitory concentration (IC50) was found to be 13.2 µM.

Take `CC1=CC(=O)NCCN1C`: the EC50 is 138 µM and the IC50 is 1780 µM.

Turning to `Cc1ccc(-c2ccc(Nc3c4ccccc4nc4ccccc34)cc2)cn1`, the EC50 was > 200 µM and the IC50 was determined as 2.69 µM.

In the case of `Nc1c(Br)cc2c(c1Br)Cc1cc(N=Nc3ccccc3)ccc1-2`, the EC50 came to 51.3 µM and the half-maximal inhibitory concentration (IC50) came out at 102 µM.

For the compound `COc1ccc(NC2Oc3cc4c(cc3C(c3cc(OC)c(O)c(OC)c3)C2C)OCO4)cc1` (configuration not stated), the EC50 is > 200 µM and the IC50 is 3.63 µM.

As for `CN(C)c1ccc(N=C2C=CC(=C(C#N)C#N)c3ccccc32)cc1`, the outcome was inactive.

Regarding `CCOC(=O)c1ccc(CS(=O)(=O)c2ccc(OC)cc2)c([N+](=O)[O-])c1`, the EC50 was > 95.5 µM and the IC50 is > 95.5 µM.

For `CCN(CC)CC(=O)Nc1ccccc1C`, the EC50 is > 100 µM and the IC50 is > 100 µM.

As to `O=C(C[n+]1ccccc1)NNC(=O)/C(=C/c1ccc2c(c1)OCO2)NC(=O)c1ccccc1`, the EC50 is > 7.76 µM and the IC50 is > 7.76 µM.

`CSCCC(NC(=O)OC(C)(C)C)C(=O)NCCNc1ccc(NCCNC(=O)C(CCSC)NC(=O)OC(C)(C)C)c2c1C(=O)c1ccccc1C2=O` (configuration not stated): the EC50 is > 100 µM and the IC50 was > 100 µM.

Regarding `Nc1nc(Cl)cc(NCC2(O)CC2)n1`, the EC50 was > 200 µM and the IC50 is > 200 µM.

With `COc1cc(/C=C(\C#N)C(=O)c2ccccc2)cc(OC)c1OC`, the EC50 was > 16.2 µM and the IC50 is > 16.2 µM.

With `Clc1ccc(C2NN=C3c4ccccc4OCC32)cc1` (configuration not stated), the EC50 was > 200 µM and the half-maximal inhibitory concentration (IC50) amounted to 4.27 µM.

Regarding `C1CCCN(NC2=NCCO2)CC1`, the half-maximal effective concentration (EC50) was 93.3 µM and the IC50 worked out at 1000 µM.

For the compound `Cc1nc2ccc(Cl)cc2c2c1CCN2c1ccc(F)cc1`, the EC50 was > 200 µM and the IC50 turned out to be 11.5 µM.

Regarding `O=c1cc(CO)oc2c3c(cc(O)c12)OCC(COC1OC(CO)C(O)C(O)C1O)=CC3` (configuration not stated), the EC50 is > 550 µM and the IC50 was determined as 288 µM.

`Cc1cccc2c1c(=O)c1c(O)cc3c(c1n2C)C=CC(C)(C)O3`: the EC50 was 32.4 µM and the half-maximal inhibitory concentration (IC50) is > 200 µM.

Consider `CCCCCCCCCCCCCCCCCC(=O)OCC(CO)OC(=O)CCCCCCCCCCCCCCCCC` (configuration not stated), for which the result was inactive.

Regarding `Cc1cc(O)c2c3c1C(=O)Oc1c(CO)c(O)c(C(=O)O)c(c1O3)C=NN=Cc1c3c(c(CO)c(O)c1C(=O)O)OC(=O)c1c(C)cc(O)c(c1O3)C=NN=C2`, the outcome was inactive.

Turning to `O=[N+]([O-])c1cc(C(F)(F)F)ccc1SSc1ccc(C(F)(F)F)cc1[N+](=O)[O-]`, the EC50 is > 200 µM; the IC50 was 24.5 µM and 13.2 µM.

Turning to `CC1(C)CC(=O)CC(=Nc2ccc([N+](=O)[O-])cc2)C1`, the EC50 is > 52.5 µM and the IC50 was > 52.5 µM.

For `C=CC1(C)CCC2C(=CCC3C2(C)CC(O)C(O)C3(C)COC2OC(CO)C(O)C(O)C2O)C1` (configuration not stated), the EC50 is > 200 µM and the IC50 came to 39.8 µM.

On to `c1ccc2c(C(c3c[nH]c4ccccc34)c3c[nH]c4ccccc34)c[nH]c2c1`, for which the EC50 was 0.0631 µM and the IC50 was 19.1 µM.

On to `CCCC1N=C(c2ccccc2)C2C(c3ccc([N+](=O)[O-])cc3)N12` (configuration not stated), for which the EC50 was > 200 µM and the IC50 stood at 148 µM.

Turning to `Cc1ccc(S(=O)(=O)SCC(=O)c2ccc([N+](=O)[O-])cc2)cc1`, the result was inactive and the IC50 was 102 µM.

As for `O=C(O)CN(CC(=O)O)C1CCCCC1N(CC(=O)O)CC(=O)NCCN=C=S` (configuration not stated), the EC50 is > 200 µM and the 50% inhibitory concentration (IC50) was > 200 µM.

Take `COc1ccc(/C=N/N/C(O)=c2/sc(=C(C#N)C#N)n(-c3ccccc3)c2=N)cc1`: the EC50 was > 9.12 µM and the 50% inhibitory concentration (IC50) is > 9.12 µM.

On to `CCCCCCCCC1=C(OC)C(=O)c2ccc(Cl)nc2C1=O`, for which the result was inactive.

On to `[N-]=[N+]=NC1=C(c2ccccc2)C(=O)c2cccc3cccc1c23`, for which the EC50 was > 200 µM and the IC50 stood at 7.76 µM.

Take `CN/N=C(\C)C(CN1CCCCC1)C(C1=C(O)c2ccccc2OC1)c1ccccc1` (configuration not stated): the EC50 is > 29.5 µM and the half-inhibitory concentration (IC50) is > 29.5 µM.

Turning to `CC(=O)N=C1N(/C=C2\C(=O)Oc3ccccc3C2=O)C(=O)/C(=C/c2ccc(OC(C)=O)cc2)N1C`, the EC50 is > 200 µM and the half-inhibitory concentration (IC50) stood at 107 µM.

On to `C[N+]12CC3C4CC(C3C1)C2C4` (configuration not stated), for which the EC50 is > 912 µM and the 50% inhibitory concentration (IC50) was > 912 µM.

On to `O=c1c2cc3c(cc2c2cccc4ccn1c42)OCO3`, for which the result was inactive.

With `C/C(=N\N=C(/[O-])c1ccccc1)c1cccc(/C(C)=N/N=C(\[O-])c2ccccc2)n1.O.[Cu+2]`, the EC50 is > 100 µM and the IC50 is 18.2 µM.
